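Step 1: Grow cells in 96-well plates. Step 2: Expose to compound for 48 hours at 5 concentrations. Step 3: Interpolate endpoints linearly; if unreached, use highest concentration. GI50: concentration for 50% inhibition of growth.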 Activity calls are given as the source filed them. Rule as the data show it: active = GI50 up to about 1.1 µM and inactive = higher.
What was measured:
Test in all cases: growth of human tumour cells (NCI), 48 h
SW-620 = test system: SW-620
M14 = test system: M14
EKVX = test system: EKVX
A549 = test system: A549
ACHN = test system: ACHN
HCT-15 = test system: HCT-15
HOP-62 = test system: HOP-62
SF-295 = test system: SF-295
HCT-116 = test system: HCT-116
LOX IMVI = test system: LOX IMVI
BT-549 = test system: BT-549
Malme-3M = test system: Malme-3M
786-0 = test system: 786-0
SK-OV-3 = test system: SK-OV-3
PC-3 = test system: PC-3
NCI-H226 = test system: NCI-H226
MOLT-4 = test system: MOLT-4
COLO 205 = test system: COLO 205
OVCAR-8 = test system: OVCAR-8
DU-145 = test system: DU-145
SN12C = test system: SN12C
U-251 = test system: U-251
IGROV-1 = test system: IGROV-1
NCI-H522 = test system: NCI-H522
NCI/ADR-RES = test system: NCI/ADR-RES
OVCAR-5 = test system: OVCAR-5
UO-31 = test system: UO-31
A498 = test system: A498
MDA-N = test system: MDA-N
OVCAR-3 = test system: OVCAR-3
MCF7 = test system: MCF7
NCI-H23 = test system: NCI-H23
OVCAR-4 = test system: OVCAR-4
K562 = test system: K562
SNB-19 = test system: SNB-19
SF-539 = test system: SF-539
Hs-578T = test system: Hs-578T
SF-268 = test system: SF-268
UACC-62 = test system: UACC-62
MDA-MB-435 = test system: MDA-MB-435
MDA-MB-231 = test system: MDA-MB-231
HCC 2998 = test system: HCC 2998
NCI-H460 = test system: NCI-H460
SK-MEL-28 = test system: SK-MEL-28
T47D = test system: T47D
SR = test system: SR
TK-10 = test system: TK-10
SNB-75 = test system: SNB-75
SK-MEL-5 = test system: SK-MEL-5
HT-29 = test system: HT-29
CCRF-CEM = test system: CCRF-CEM
KM12 = test system: KM12
CAKI-1 = test system: CAKI-1
HOP-92 = test system: HOP-92
UACC-257 = test system: UACC-257
RPMI-8226 = test system: RPMI-8226
SK-MEL-2 = test system: SK-MEL-2
HL-60 = test system: HL-60
RXF 393 = test system: RXF 393

Question: Which results are given for CC1=C/C(=N\O)C(C(O)(C(F)(F)F)C(F)(F)F)C(C)(C)C1 (centres undefined)?
Answer: GI50 (SW-620): > 10 µM (inactive); GI50 (M14): > 10 µM (inactive); GI50 (EKVX): > 10 µM (inactive); GI50 (A549): > 10 µM (inactive); GI50 (ACHN): > 10 µM (inactive); GI50 (HCT-15): > 10 µM; GI50 (HOP-62): > 10 µM (inactive); GI50 (SF-295): > 10 µM (inactive); GI50 (HCT-116): > 10 µM (inactive); GI50 (LOX IMVI): > 10 µM (inactive); GI50 (BT-549): > 10 µM (inactive); GI50 (Malme-3M): > 10 µM (inactive); GI50 (786-0): > 10 µM (inactive); GI50 (SK-OV-3): > 10 µM (inactive); GI50 (PC-3): > 10 µM (inactive); GI50 (NCI-H226): > 10 µM (inactive); GI50 (MOLT-4): > 10 µM (inactive); GI50 (COLO 205): > 10 µM (inactive); GI50 (OVCAR-8): > 10 µM (inactive); GI50 (DU-145): > 10 µM (inactive); GI50 (SN12C): > 10 µM (inactive); GI50 (U-251): > 10 µM (inactive); GI50 (IGROV-1): > 10 µM (inactive); GI50 (NCI-H522): > 10 µM (inactive); GI50 (NCI/ADR-RES): > 10 µM (inactive); GI50 (OVCAR-5): > 10 µM (inactive); GI50 (UO-31): > 10 µM (inactive); GI50 (A498): > 10 µM (inactive); GI50 (MDA-N): > 10 µM (inactive); GI50 (OVCAR-3): > 10 µM (inactive); GI50 (MCF7): > 10 µM (inactive); GI50 (NCI-H23): > 10 µM (inactive); GI50 (OVCAR-4): > 10 µM (inactive); GI50 (K562): > 10 µM (inactive); GI50 (SNB-19): > 10 µM (inactive); GI50 (SF-539): > 10 µM (inactive); GI50 (Hs-578T): > 10 µM (inactive); GI50 (SF-268): > 10 µM (inactive); GI50 (UACC-62): > 10 µM (inactive); GI50 (MDA-MB-435): > 10 µM (inactive); GI50 (MDA-MB-231): > 10 µM (inactive); GI50 (HCC 2998): > 10 µM (inactive); GI50 (NCI-H460): > 10 µM (inactive); GI50 (SK-MEL-28): > 10 µM (inactive); GI50 (T47D): > 10 µM (inactive); GI50 (SR): > 10 µM (inactive); GI50 (TK-10): > 10 µM (inactive); GI50 (SNB-75): 3.49 µM (inactive); GI50 (SK-MEL-5): > 10 µM (inactive); GI50 (HT-29): > 10 µM (inactive); GI50 (CCRF-CEM): > 10 µM (inactive); GI50 (KM12): > 10 µM (inactive); GI50 (CAKI-1): > 10 µM (inactive); GI50 (HOP-92): > 10 µM (inactive); GI50 (UACC-257): > 10 µM (inactive)

Question: For Cc1ccc(NC(=O)c2cc(S(=O)(=O)N3CCNNC3=O)c(S)cc2Cl)cc1, which GI50 (SW-620) is on record?
Answer: > 100 µM (inactive)

Question: What about the GI50 (M14) of the same compound?
Answer: > 100 µM (inactive)

Question: What about the GI50 (EKVX) of the same compound?
Answer: > 100 µM (inactive)

Question: And the GI50 (A549)?
Answer: > 100 µM (inactive)

Question: What about the GI50 (ACHN) of the same compound?
Answer: > 100 µM (inactive)

Question: And the GI50 (HCT-15)?
Answer: > 100 µM

Question: What about the GI50 (SF-295) of the same compound?
Answer: > 100 µM (inactive)

Question: And the GI50 (HCT-116)?
Answer: > 100 µM (inactive)

Question: What about the GI50 (LOX IMVI) of the same compound?
Answer: > 100 µM (inactive)

Question: And the GI50 (BT-549)?
Answer: 28.9 µM (inactive)

Question: What about the GI50 (Malme-3M) of the same compound?
Answer: > 100 µM (inactive)

Question: And the GI50 (786-0)?
Answer: > 100 µM (inactive)

Question: What about the GI50 (PC-3) of the same compound?
Answer: > 100 µM (inactive)

Question: And the GI50 (NCI-H226)?
Answer: > 100 µM (inactive)

Question: And the GI50 (MOLT-4)?
Answer: > 100 µM (inactive)

Question: And the GI50 (COLO 205)?
Answer: > 100 µM (inactive)

Question: What about the GI50 (OVCAR-8) of the same compound?
Answer: > 100 µM (inactive)

Question: And the GI50 (DU-145)?
Answer: > 100 µM (inactive)

Question: What about the GI50 (SN12C) of the same compound?
Answer: > 100 µM (inactive)

Question: And the GI50 (U-251)?
Answer: > 100 µM (inactive)

Question: What about the GI50 (IGROV-1) of the same compound?
Answer: > 100 µM (inactive)

Question: What about the GI50 (NCI-H522) of the same compound?
Answer: 26.5 µM (inactive)

Question: What about the GI50 (NCI/ADR-RES) of the same compound?
Answer: > 100 µM (inactive)

Question: And the GI50 (OVCAR-5)?
Answer: > 100 µM (inactive)

Question: And the GI50 (UO-31)?
Answer: > 100 µM (inactive)

Question: What about the GI50 (MDA-N) of the same compound?
Answer: > 100 µM (inactive)

Question: What about the GI50 (OVCAR-3) of the same compound?
Answer: > 100 µM (inactive)

Question: And the GI50 (RPMI-8226)?
Answer: 28.2 µM (inactive)

Question: And the GI50 (MCF7)?
Answer: > 100 µM (inactive)

Question: What about the GI50 (SK-MEL-2) of the same compound?
Answer: > 100 µM (inactive)

Question: What about the GI50 (OVCAR-4) of the same compound?
Answer: > 100 µM (inactive)

Question: What about the GI50 (K562) of the same compound?
Answer: 56.5 µM (inactive)

Question: And the GI50 (SNB-19)?
Answer: > 100 µM (inactive)

Question: What about the GI50 (SF-539) of the same compound?
Answer: > 100 µM (inactive)

Question: What about the GI50 (Hs-578T) of the same compound?
Answer: > 100 µM (inactive)

Question: And the GI50 (SF-268)?
Answer: > 100 µM (inactive)

Question: What about the GI50 (UACC-62) of the same compound?
Answer: > 100 µM (inactive)

Question: What about the GI50 (MDA-MB-435) of the same compound?
Answer: > 100 µM (inactive)

Question: And the GI50 (HL-60)?
Answer: > 100 µM (inactive)

Question: What about the GI50 (MDA-MB-231) of the same compound?
Answer: > 100 µM (inactive)

Question: And the GI50 (HCC 2998)?
Answer: > 100 µM (inactive)

Question: What about the GI50 (NCI-H460) of the same compound?
Answer: > 100 µM (inactive)

Question: What about the GI50 (SK-MEL-28) of the same compound?
Answer: > 100 µM (inactive)

Question: And the GI50 (T47D)?
Answer: 41.8 µM (inactive)

Question: And the GI50 (SR)?
Answer: > 100 µM (inactive)

Question: What about the GI50 (TK-10) of the same compound?
Answer: 93.8 µM (inactive)

Question: And the GI50 (SNB-75)?
Answer: > 100 µM (inactive)

Question: And the GI50 (SK-MEL-5)?
Answer: > 100 µM (inactive)

Question: What about the GI50 (CCRF-CEM) of the same compound?
Answer: > 100 µM (inactive)

Question: What about the GI50 (KM12) of the same compound?
Answer: > 100 µM (inactive)

Question: What about the GI50 (CAKI-1) of the same compound?
Answer: > 100 µM (inactive)

Question: And the GI50 (HOP-92)?
Answer: 41.3 µM (inactive)

Question: And the GI50 (UACC-257)?
Answer: > 100 µM (inactive)

Question: And the GI50 (RXF 393)?
Answer: 27.3 µM (inactive)

From ChEMBL document CHEMBL1201862, “PubChem BioAssay data set” (2004)
